Tests used:
[1] = Hygroscopicity / deliquescence of the unformulated drug; format: physicochemical
From the text: It is particularly surprising that such a hygroscopic and deliquescent drug can be formulated in accordance with the present invention as an acceptably non-hygroscopic composition.

[2] = Solubility of the drug in matrix forming agents HPMC and PEG; format: physicochemical

In the case of `CC(=N)NCCSC[C@](C)(N)C(=O)O` [S-[2-[(1-iminoethyl)amino]ethyl]-2-methyl-L-cysteine], the Hygroscopicity and deliquescence [1] is reported as “extremely hygroscopic and deliquescent” and the “Solubility in HPMC and PEG” value [2] is reported as “low solubility”.
With “S-[2-[(1-iminoethyl)amino]ethyl]-2-methyl-L-cysteine dihydrochoride [Compound A]” the Hygroscopicity and deliquescence [1] was “extremely hygroscopic and deliquescent”.

— patent US20050013856A1, “Solid dispersions comprising a hygroscopic and/or deliquescent drug” (priority 2002, published 2005)
